From patent US20160297833A1, “THIENOPYRIMIDINES AS MKNK1 AND MKNK2 INHIBITORS” (BAYER PHARMA AKTIENGESELLSCHAFT, priority 2013, published 2016)
Where two headings read alike, the source gives them in different places.

Target: T1, human full-length MKNK1 (Homo sapiens, UniProt Q9BUB5, T385D)
T1 construct: GST (N); purchased Carna Biosciences 02-145; host or cells: insect cells (baculovirus expression system)
Test: MKNK1 kinase high ATP assay (TR-FRET)
Type: biochemical
Settings: for IC50: read-out: MKNK1 IC50
In short: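 Full-length human MKNK1 (T385D) preincubated 15 min at 22 °C with compound in HEPES pH 7.5/MgCl2/DTT buffer; reaction with 2 mM ATP (final) and 0.06 μM biotinylated peptide (final), 30 min at 22 °C.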

[1] = Table 1, MKNK1 kinase high ATP assay, 2 mM ATP

T1 sequence (Q9BUB5 1-424 isoform Q9BUB5-2 T344D): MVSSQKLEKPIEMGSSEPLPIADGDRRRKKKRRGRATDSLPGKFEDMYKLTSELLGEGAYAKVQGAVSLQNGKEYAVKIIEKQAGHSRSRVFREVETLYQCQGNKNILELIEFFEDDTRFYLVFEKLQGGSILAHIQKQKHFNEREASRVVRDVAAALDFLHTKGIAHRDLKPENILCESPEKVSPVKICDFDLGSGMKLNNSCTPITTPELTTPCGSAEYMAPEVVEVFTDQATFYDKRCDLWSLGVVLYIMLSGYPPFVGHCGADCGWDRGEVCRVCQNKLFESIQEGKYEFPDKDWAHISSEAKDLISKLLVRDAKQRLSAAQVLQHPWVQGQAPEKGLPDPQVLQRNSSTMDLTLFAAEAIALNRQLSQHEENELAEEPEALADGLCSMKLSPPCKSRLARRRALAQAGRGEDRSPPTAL

Q: With `COc1cc2[nH]ncc2cc1Nc1ncnc2sc3c(c12)CC[C@H](C(=O)N(CCO)CCCN(C)C)C3` [Example 58, (7S)—N-[3-(Dimethylamino)propyl]-N-(2-hydroxyethyl)-4-[(6-methoxy-1H-indazol-5-yl)amino]-5,6,7,8-tetrahydro[1]benzothieno[2,3-d]pyrimidine-7-carboxamide] as the compound, how does the IC50 [1] read?
A: 0.3 nM

Q: How did the IC50 [1] turn out when `COc1cc2[nH]ncc2cc1Nc1ncnc2sc3c(c12)CC[C@H](C(=O)N(CCCN(C)C)CCCN(C)C)C3` [Example 59, (7S)—N,N-bis[3-(Dimethylamino)propyl]-4-[(6-methoxy-1H-indazol-5-yl)amino]-5,6,7,8-tetrahydro[1]benzothieno[2,3-d]pyrimidine-7-carboxamide] was run?
A: 0.2 nM

Q: For `COc1cc2[nH]ncc2cc1Nc1ncnc2sc3c(c12)CC[C@H](C(=O)N(CCN(C)C)Cc1ccccn1)C3` [Example 60, (7S)—N-[2-(Dimethylamino)ethyl]-4-[(6-methoxy-1H-indazol-5-yl)amino]-N-(pyridin-2-ylmethyl)-5,6,7,8-tetrahydro[1]benzothieno[2,3-d]pyrimidine-7-carboxamide], which IC50 [1] is on record?
A: 0.2 nM

Q: For `COc1cc2[nH]ncc2cc1Nc1ncnc2sc3c(c12)CC[C@H](C(=O)N(CCN(C)C)Cc1cccnc1)C3` [Example 61, (7S)—N-[2-(Dimethylamino)ethyl]-4-[(6-methoxy-1H-indazol-5-yl)amino]-N-(pyridin-3-ylmethyl)-5,6,7,8-tetrahydro[1]benzothieno[2,3-d]pyrimidine-7-carboxamide], which IC50 [1] is on record?
A: 0.1 nM

Q: With `COc1cc2[nH]ncc2cc1Nc1ncnc2sc3c(c12)CC[C@H](C(=O)N(CCN(C)C)Cc1ccncc1)C3` [Example 62, (7S)—N-[2-(Dimethylamino)ethyl]-4-[(6-methoxy-1H-indazol-5-yl)amino]-N-(pyridin-4-ylmethyl)-5,6,7,8-tetrahydro[1]benzothieno[2,3-d]pyrimidine-7-carboxamide] as the compound, how does the IC50 [1] read?
A: 0.1 nM

Q: For `COc1cc2[nH]ncc2cc1Nc1ncnc2sc3c(c12)CC[C@H](C(=O)N(CCCN(C)C)Cc1ccccc1)C3` [Example 63, (7S)—N-Benzyl-N-[3-(dimethylamino)propyl]-4-[(6-methoxy-1H-indazol-5-yl)amino]-5,6,7,8-tetrahydro[1]benzothieno[2,3-d]pyrimidine-7-carboxamide], which IC50 [1] is on record?
A: 0.2 nM

Q: For `COc1cc2[nH]ncc2cc1Nc1ncnc2sc3c(c12)CC[C@H](C(=O)N1C(=O)O[C@H](c2ccccc2)[C@@H]1C)C3` [Example 64, (4S,5R)-3-({(7S)-4-[(6-Methoxy-1H-indazol-5-yl)amino]-5,6,7,8-tetrahydro[1]benzothieno[2,3-d]pyrimidin-7-yl}carbonyl)-4-methyl-5-phenyl-1,3-oxazolidin-2-one], which IC50 [1] is on record?
A: 10.5 nM

Q: For `CCOc1cc2[nH]ncc2cc1Nc1ncnc2sc3c(c12)CC[C@H](C(=O)N(C)CC(F)F)C3` [Example 65, (7S)—N-(2,2-Difluoroethyl)-4-[(6-ethoxy-1H-indazol-5-yl)amino]-N-methyl-5,6,7,8-tetrahydro[1]benzothieno[2,3-d]pyrimidine-7-carboxamide], which IC50 [1] is on record?
A: 0.6 nM

Q: For `CCOc1cc2[nH]ncc2cc1Nc1ncnc2sc3c(c12)CC[C@H](C(=O)N(C)CCC(F)(F)F)C3` [Example 66, (7S)-4-[(6-Ethoxy-1H-indazol-5-yl)amino]-N-methyl-N-(3,3,3-trifluoropropyl)-5,6,7,8-tetrahydro[1]benzothieno[2,3-d]pyrimidine-7-carboxamide], which IC50 [1] is on record?
A: 0.4 nM

Q: And the IC50 (Table 3, example numbers of WO2013/174744(A1), not of this patent, pure enantiomer from chiral HPLC, absolute configuration at amide 'R or S')?
A: 1.7 nM

Q: And the IC50 (Table 3, example numbers of WO2013/174744(A1), not of this patent, pure enantiomer from chiral HPLC, absolute configuration at amide 'S or R')?
A: 0.9 nM

Q: What about the “Activity Ratio MKNK1” value (Table 3, example numbers of WO2013/174744(A1), ratio of the IC50 values of the two enantiomers) of the same compound?
A: 1.9

Q: With `CCOc1cc2[nH]ncc2cc1Nc1ncnc2sc3c(c12)CC[C@H](C(=O)N1CCCC1)C3` [Example 67, {(7S)-4-[(6-Ethoxy-1H-indazol-5-yl)amino]-5,6,7,8-tetrahydro[1]benzothieno[2,3-d]pyrimidin-7-yl}(pyrrolidin-1-yl)methanone] as the compound, how does the IC50 [1] read?
A: 0.3 nM
